Patent US11377425B1, “Small molecule modulators of IL-17” (LEO Pharma A/S, priority 2018, dated 2022)
pEC50: −log10 of the molar value.

What follows are compounds tested against T1, human IL-17AA (Homo sapiens, UniProt Q16552) (assay: IL-8 release assay in human epithelial keratinocytes adult (HEKa)). Settings: HEKa cells, 3 ng/mL HEK-human IL-17AA + 10 ng/mL human TNFalpha; read-out: Rel EC50 IL-8 release assay.
T1 construct: host or cells: HEK (human embryonic kidney) cells
T1 sequence (Q16552 24-155): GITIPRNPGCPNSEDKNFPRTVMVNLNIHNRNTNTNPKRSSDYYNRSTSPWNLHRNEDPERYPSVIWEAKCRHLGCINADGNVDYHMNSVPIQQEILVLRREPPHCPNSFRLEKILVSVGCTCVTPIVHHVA
Assay type: cell-based
How it was run: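 IL-8 release, quantified by HTRF and normalized to controls, reports IL-17 signaling in HEKa cells treated with compound plus final 3 ng/mL IL-17AA (HEK-derived) and 10 ng/mL TNF-alpha for 68-72 h; TNF-alpha-only wells set 100% inhibition. Four-parameter logistic fits (r^2>0.9) give relative IC50 and Emax; PrestoBlue flags cytotoxicity.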

pEC50, > 7.00:
Cc1nocc1C(=O)N[C@H](C(=O)Nc1ccc(-c2c(C)n[nH]c2C)cc1)C1CCCCCC1 [Example 59, N-[(1S)-1-cycloheptyl-2-[4-(3,5-dimethyl-1H pyrazol-4-yl)anilino]-2-oxo-ethyl]-3-methyl-isoxazole-4-carboxamide]
Cc1n[nH]c(C)c1-c1ccc(NC(=O)[C@@H](NC(=O)c2cnnn2-c2ccccc2)C2CCCCCC2)cc1 [Example 63, N-[(1S)-1-cycloheptyl-2-[4-(3,5-dimethyl-1H-pyrazol-4-yl)anilino]-2-oxo-ethyl]-3-phenyl-triazole-4-carboxamide]

pEC50, 6.00 to 7.00:
CCC(F)(F)C(=O)N[C@H](C(=O)Nc1ccc(-c2c(C)n[nH]c2C)cc1)C1CCCCC1 [Example 56, N-[(1S)-1-cyclohexyl-2-[4-(3,5-dimethyl-1H-pyrazol-4-yl)anilino]-2-oxo-ethyl]-2,2-difluoro-butanamide]
Cc1n[nH]c(C)c1-c1ccc(NC(=O)[C@@H](NC(=O)C2(C)CC2)C2CCCCC2)cc1 [Example 57, N-[(1S)-1-cyclohexyl-2-[4-(3,5-dimethyl-1H-pyrazol-4-yl)anilino]-2-oxo-ethyl]-1-methyl-cyclopropanecarboxamide]
Cc1nocc1C(=O)N[C@H](C(=O)Nc1ccc(-c2c(C)n[nH]c2C)cc1)C1CCCCC1 [Example 58, N-[(1S)-1-cyclohexyl-2-[4-(3,5-dimethyl-1H-pyrazol-4-yl)anilino]-2-oxo-ethyl]-3-methyl-isoxazole-4-carboxamide]
Cc1n[nH]c(C)c1-c1ccc(NC(=O)[C@@H](NC(=O)c2cnnn2C)C2CCCCC2)cc1 [Example 60, N-[(1S)-1-cyclohexyl-2-[4-(3,5-dimethyl-1H-pyrazol-4-yl)anilino]-2-oxo-ethyl]-3-methyl-triazole-4-carboxamide]
Cc1n[nH]c(C)c1-c1ccc(NC(=O)[C@@H](NC(=O)c2cnnn2-c2ccccc2)C2CCCCC2)cc1 [Example 61, N-[(1S)-1-cyclohexyl-2-[4-(3,5-dimethyl-1H-pyrazol-4-yl)anilino]-2-oxo-ethyl]-3-phenyl-triazole-4-carboxamide]
Cc1n[nH]c(C)c1-c1ccc(NC(=O)[C@@H](NC(=O)c2cnnn2C)C2CCCCCC2)cc1 [Example 62, N-[(1S)-1-cycloheptyl-2-[4-(3,5-dimethyl-1H-pyrazol-4-yl)anilino]-2-oxo-ethyl]-3-methyl-triazole-4-carboxamide]
Cc1n[nH]c(C)c1-c1ccc(NC(=O)[C@@H](NC(=O)c2c[nH]c3cnccc23)C2CCCCC2)cc1 [Example 64, N-[(1S)-1-cyclohexyl-2-[4-(3,5-dimethyl-1H-pyrazol-4-yl)anilino]-2-oxo-ethyl]-1H-pyrrolo[2,3-c]pyridine-3-carboxamide]
Cc1n[nH]c(C)c1-c1ccc(NC(=O)[C@@H](NC(=O)C2(F)CC2)C2CCCCC2)cc1 [Example 66, N-[(1S)-1-cyclohexyl-2-[4-(3,5-dimethyl-1H-pyrazol-4-yl)anilino]-2-oxo-ethyl]-1-fluoro-cyclopropanecarboxamide]
Cc1n[nH]c(C)c1-c1ccc(NC(=O)[C@@H](NC(=O)c2cnn3ccccc23)C2CCCCC2)cc1 [Example 68, N-[(1S)-1-cyclohexyl-2-[4-(3,5-dimethyl-1H-pyrazol-4-yl)anilino]-2-oxo-ethyl]pyrazolo[1,5-a]pyridine-3-carboxamide]
Cc1n[nH]c(C)c1-c1ccc(NC(=O)[C@@H](NC(=O)c2cnn3ncccc23)C2CCCCC2)cc1 [Example 70, N-[(1S)-1-cyclohexyl-2-[4-(3,5-dimethyl-1H-pyrazol-4-yl)anilino]-2-oxo-ethyl]pyrazolo[1,5-b]pyridazine-3-carboxamide]
Cc1n[nH]c(C)c1-c1ccc(NC(=O)[C@@H](NC(=O)c2cn(C)c3ncccc23)C2CCCCC2)cc1 [Example 71, N-[(1S)-1-cyclohexyl-2-[4-(3,5-dimethyl-1H-pyrazol-4-yl)anilino]-2-oxo-ethyl]-1-methyl-pyrrolo[2,3-b]pyridine-3-carboxamide]
Cc1n[nH]c(C)c1-c1ccc(NC(=O)[C@@H](NC(=O)c2coc3ccccc23)C2CCCCC2)cc1 [Example 73, N-[(1S)-1-cyclohexyl-2-[4-(3,5-dimethyl-1H-pyrazol-4-yl)anilino]-2-oxo-ethyl]benzofuran-3-carboxamide]
Cc1n[nH]c(C)c1-c1ccc(NC(=O)[C@@H](NC(=O)c2csc3ccccc23)C2CCCCC2)cc1 [Example 74, N-[(1S)-1-cyclohexyl-2-[4-(3,5-dimethyl-1H-pyrazol-4-yl)anilino]-2-oxo-ethyl]benzothiophene-3-carboxamide]
Cc1n[nH]c(C)c1-c1ccc(NC(=O)[C@@H](NC(=O)c2cnnn2C(C)C)C2CCCCC2)cc1 [Example 75, N-[(1S)-1-cyclohexyl-2-[4-(3,5-dimethyl-1H-pyrazol-4-yl)anilino]-2-oxo-ethyl]-3-isopropyl-triazole-4-carboxamide]
Cc1n[nH]c(C)c1-c1ccc(NC(=O)[C@@H](NC(=O)c2ccnn2C)[C@@H]2CCc3ccccc32)cc1 [Example 76, N-[(1S)-2-[4-(3,5-dimethyl-1H-pyrazol-4-yl)anilino]-1-[(1R)-indan-1-yl]-2-oxo-ethyl]-2-methyl-pyrazole-3-carboxamide]
Cc1n[nH]c(C)c1-c1ccc(NC(=O)[C@@H](NC(=O)c2ccnn2C)[C@@H]2CCc3ccc(Cl)cc32)cc1 [Example 77, N-[(1S)-1-[(1R)-6-chloroindan-1-yl]-2-[4-(3,5-dimethyl-1H-pyrazol-4-yl)anilino]-2-oxo-ethyl]-2-methyl-pyrazole-3-carboxamide]

pEC50, < 6.00:
Cc1n[nH]c(C)c1-c1ccc(NC(=O)[C@@H](NC(=O)c2c[nH]c3ncccc23)C2CCCCC2)cc1 [Example 65, N-[(1S)-1-cyclohexyl-2-[4-(3,5-dimethyl-1H-pyrazol-4-yl)anilino]-2-oxo-ethyl]-1H-pyrrolo[2,3-b]pyridine-3-carboxamide]
Cc1n[nH]c(C)c1-c1ccc(NC(=O)[C@@H](NC(=O)C2(F)CC2)C2CCC(F)(F)CC2)cc1 [Example 67, N-[(1S)-1-(4,4-difluorocyclohexyl)-2-[4-(3,5-dimethyl-1H-pyrazol-4-yl)anilino]-2-oxo-ethyl]-1-fluoro-cyclopropanecarboxamide]
Cc1n[nH]c(C)c1-c1ccc(NC(=O)[C@@H](NC(=O)c2conc2-c2ccc(Cl)cc2)C2CCCCC2)cc1 [Example 69, 3-(4-chlorophenyl)-N-[(1S)-1-cyclohexyl-2-[4-(3,5-dimethyl-1H-pyrazol-4-yl)anilino]-2-oxo-ethyl]isoxazole-4-carboxamide]
Cc1n[nH]c(C)c1-c1ccc(NC(=O)[C@@H](NC(=O)c2cnc3ncccn23)C2CCCCC2)cc1 [Example 72, N-[(1S)-1-cyclohexyl-2-[4-(3,5-dimethyl-1H-pyrazol-4-yl)anilino]-2-oxo-ethyl]imidazo[1,2-a]pyrimidine-3-carboxamide]
Cc1n[nH]c(C)c1-c1ccc(NC(=O)[C@@H](NC(=O)c2ccnn2C)[C@@H]2CCc3ccc(C#N)cc32)cc1 [Example 78, N-[(1S)-1-[(1R)-6-cyanoindan-1-yl]-2-[4-(3,5-dimethyl-1H-pyrazol-4-yl)anilino]-2-oxo-ethyl]-2-methyl-pyrazole-3-carboxamide]
